Converted amounts (≈) assume the structure as drawn. Peptide text beside a SMILES is read from it.
How the values were obtained:
Bacillus subtilis = assay: Antibacterial activity against Bacillus subtilis; assay type: functional
[1] = Induction of erythrocyte lysis at 100 uM; assay type: cell-based; settings: human, erythrocytes; read-out: Activity
Escherichia coli = assay: Antibacterial activity against Escherichia coli; assay type: functional

Row | Structure (SMILES) | MIC (Bacillus subtilis) | MIC (Escherichia coli) | hemolysis at 100 µM [1]
1 | O=C(O)c1cc(C(=O)O)cc(C(=O)O)c1 | > 250 µM | > 250 µM | < 1%
2 | NCCCC[C@@H]1NC(=O)[C@H](CCCCN)NC(=O)[C@H](Cc2ccccc2)NC(=O)[C@H](CCCCN)NC(=O)[C@H](Cc2c[nH]c3ccccc23)NC(=O)[C@H](Cc2c[nH]c3ccccc23)NC1=O (cyclo(FKKWWK)) | 25 µM (≈ 22.6 µg/mL) | 25 µM (≈ 22.6 µg/mL) | 10%
3 | NCCCCCNC(=O)[C@@H](N)Cc1c[nH]c2ccccc12 | > 250 µM | > 250 µM | < 1%
4 | NCCNC(=O)[C@@H](N)Cc1c[nH]c2ccccc12 | > 250 µM | > 250 µM | < 1%

Further lines, with some results ahead:

Row | MIC (Bacillus subtilis) | MIC (Escherichia coli) | Structure (SMILES) | hemolysis at 100 µM [1]
5 | 3.9 µM (≈ 3.98 µg/mL) | > 125 µM | N=C(N)NCCNC(=O)[C@H](Cc1c[nH]c2ccccc12)NC(=O)c1cc(C(=O)N[C@@H](Cc2c[nH]c3ccccc23)C(=O)NCCNC(=N)N)cc(C(=O)N[C@@H](Cc2c[nH]c3ccccc23)C(=O)NCCNC(=N)N)c1 | 5.1%
6 | 2 µM (≈ 2.29 µg/mL) | 15.6 µM (≈ 17.9 µg/mL) | N=C(N)NCCCCCNC(=O)[C@H](Cc1c[nH]c2ccccc12)NC(=O)c1cc(C(=O)N[C@@H](Cc2c[nH]c3ccccc23)C(=O)NCCCCCNC(=N)N)cc(C(=O)N[C@@H](Cc2c[nH]c3ccccc23)C(=O)NCCCCCNC(=N)N)c1 | 22.6%
7 | 31.3 µM (≈ 28 µg/mL) | > 125 µM | NCCNC(=O)[C@H](Cc1c[nH]c2ccccc12)NC(=O)c1cc(C(=O)N[C@@H](Cc2c[nH]c3ccccc23)C(=O)NCCN)cc(C(=O)N[C@@H](Cc2c[nH]c3ccccc23)C(=O)NCCN)c1 | 1.2%
8 | 31.3 µM (≈ 32 µg/mL) | 62.5 µM (≈ 63.8 µg/mL) | NCCCCCNC(=O)[C@H](Cc1c[nH]c2ccccc12)NC(=O)c1cc(C(=O)N[C@@H](Cc2c[nH]c3ccccc23)C(=O)NCCCCCN)cc(C(=O)N[C@@H](Cc2c[nH]c3ccccc23)C(=O)NCCCCCN)c1 | 0.4%
9 | 3.1 µM (≈ 3.06 µg/mL) | 6.3 µM (≈ 6.23 µg/mL) | N=C(N)NCCC[C@@H]1NC(=O)[C@H](CCCNC(=N)N)NC(=O)[C@H](Cc2ccccc2)NC(=O)[C@H](CCCNC(=N)N)NC(=O)[C@H](Cc2c[nH]c3ccccc23)NC(=O)[C@H](Cc2c[nH]c3ccccc23)NC1=O (cyclo(RRWWRF)) | 24%

From ChEMBL document CHEMBL1139150, “Design of antimicrobial compounds based on peptide structures” (Bioorg Med Chem Lett, 2007)
